Test results from ChEMBL document CHEMBL1201861, “Genomics of Drug Sensitity in Cancer screening data, Wellcome Trust Sanger Institute”.

Experiments:
Test in all cases: cells
RKO = assay type: functional, cell-based, Homo sapiens; conditions: Homo sapiens, RKO;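 also: growth inhibition of human RKO cells, read out with a cell viability assay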
Description: SANGER: Inhibition of human RKO cell growth in a cell viability assay.

KINGS-1 = assay type: functional, cell-based, Homo sapiens; conditions: Homo sapiens, KINGS-1;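 also: cell viability assay measuring suppression of KINGS-1 cell growth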
Description: SANGER: Inhibition of human KINGS-1 cell growth in a cell viability assay.

HAL-01 = assay type: functional, cell-based; conditions: Homo sapiens;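 also: growth inhibition of human HAL-01 cells, read out with a cell viability assay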
Description: SANGER: Inhibition of human HAL-01 cell growth in a cell viability assay.

KYSE-510 = assay type: functional, cell-based, Homo sapiens; conditions: Homo sapiens, KYSE-510;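 also: cell viability readout used to measure how strongly growth of the cell line is suppressed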
Description: SANGER: Inhibition of human KYSE-510 cell growth in a cell viability assay.

8505C = assay type: functional, cell-based, Homo sapiens; conditions: Homo sapiens, 8505C
Description: SANGER: Inhibition of human 8505C cell growth in a cell viability assay.

SH-4 = assay type: functional, cell-based, Homo sapiens; conditions: Homo sapiens, SH-4;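 also: growth inhibition of SH-4 cells, read out with a cell viability assay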
Description: SANGER: Inhibition of human SH-4 cell growth in a cell viability assay.

BB30-HNC = assay type: functional, cell-based, Homo sapiens; conditions: Homo sapiens, BB30-HNC;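 also: growth inhibition of the cultured cell line, read out by a cell viability assay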
Description: SANGER: Inhibition of human BB30-HNC cell growth in a cell viability assay.

NCI-N87 = assay type: functional, cell-based, Homo sapiens; conditions: Homo sapiens, NCI-N87;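 also: growth inhibition of human NCI-N87 cells, read out with a cell viability assay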
Description: SANGER: Inhibition of human NCI-N87 cell growth in a cell viability assay.

NCI-H1395 = assay type: functional, cell-based, Homo sapiens; conditions: Homo sapiens, NCI-H1395;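 also: cell viability assay read-out quantifying reduced proliferation of human NCI-H1395 cells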
Description: SANGER: Inhibition of human NCI-H1395 cell growth in a cell viability assay.

IGR-1 = assay type: functional, cell-based, Homo sapiens; conditions: Homo sapiens, IGR-1;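 also: growth inhibition of human IGR-1 cells, read out with a cell viability assay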
Description: SANGER: Inhibition of human IGR-1 cell growth in a cell viability assay.

ACHN = assay type: functional, cell-based, Homo sapiens; conditions: Homo sapiens, ACHN;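 also: cell viability read-out used to gauge how strongly growth of human ACHN cells is suppressed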
Description: SANGER: Inhibition of human ACHN cell growth in a cell viability assay.

NCI-H1793 = assay type: functional, cell-based, Homo sapiens; conditions: Homo sapiens, NCI-H1793;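 also: cell growth inhibition, read out by a cell viability assay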
Description: SANGER: Inhibition of human NCI-H1793 cell growth in a cell viability assay.

LB771-HNC = assay type: functional, cell-based, Homo sapiens; conditions: Homo sapiens, LB771-HNC;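 also: growth inhibition of LB771-HNC human cells, read out with a cell viability assay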
Description: SANGER: Inhibition of human LB771-HNC cell growth in a cell viability assay.

SW780 = assay type: functional, cell-based, Homo sapiens; conditions: Homo sapiens, SW780;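 also: growth inhibition of the cells, read out with a cell viability assay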
Description: SANGER: Inhibition of human SW780 cell growth in a cell viability assay.

FTC-133 = assay type: functional, cell-based, Homo sapiens; conditions: Homo sapiens, FTC-133
RPMI-7951 = assay type: functional, cell-based, Homo sapiens; conditions: Homo sapiens, RPMI-7951
Description: SANGER: Inhibition of human RPMI-7951 cell growth in a cell viability assay.

U-87 MG = assay type: functional, cell-based, U-87MG ATCC; conditions: Homo sapiens;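 also: growth inhibition of the cells measured with a viability assay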
Description: SANGER: Inhibition of human U-87-MG cell growth in a cell viability assay.

KMOE-2 = assay type: functional, cell-based; conditions: Homo sapiens;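 also: growth inhibition of human KMOE-2 cells, read out with a cell viability assay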
Description: SANGER: Inhibition of human KMOE-2 cell growth in a cell viability assay.

TE-1 = assay type: functional, cell-based, Homo sapiens; conditions: Homo sapiens, TE-1;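 also: growth inhibition of the human TE-1 cell line, read out with a cell viability assay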
Description: SANGER: Inhibition of human TE-1 cell growth in a cell viability assay.

TK-10 = assay type: functional, cell-based, Homo sapiens; conditions: Homo sapiens, TK-10;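 also: growth inhibition of TK-10 cells, read out in a cell viability assay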
Description: SANGER: Inhibition of human TK10 cell growth in a cell viability assay.

HCC 2998 = assay type: functional, cell-based, Homo sapiens; conditions: Homo sapiens, HCC 2998;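 also: growth inhibition of human HCC2998 cells, measured with a cell viability read-out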
Description: SANGER: Inhibition of human HCC2998 cell growth in a cell viability assay.

NTERA-2-cl-D1 = assay type: functional, cell-based, Homo sapiens; conditions: Homo sapiens, NTERA-2-cl-D1;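 also: inhibition of cell growth, measured with a cell viability assay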
Description: SANGER: Inhibition of human NTERA-S-cl-D1 cell growth in a cell viability assay.

L-363 = assay type: functional, cell-based; conditions: Homo sapiens
Description: SANGER: Inhibition of human L-363 cell growth in a cell viability assay.

CAKI-1 = assay type: functional, cell-based, Homo sapiens; conditions: Homo sapiens, CAKI-1;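 also: growth inhibition of CAKI-1 cells, measured by a cell viability assay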
Description: SANGER: Inhibition of human CAKI-1 cell growth in a cell viability assay.

BB65-RCC = assay type: functional, cell-based, Homo sapiens; conditions: Homo sapiens, BB65-RCC;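 also: growth inhibition of the cell line, measured with a cell viability assay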
Description: SANGER: Inhibition of human BB65-RCC cell growth in a cell viability assay.

EFM-19 = assay type: functional, cell-based, Homo sapiens; conditions: Homo sapiens, EFM-19;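 also: growth inhibition of human EFM-19 cells, measured in a cell viability assay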
Description: SANGER: Inhibition of human EFM-19 cell growth in a cell viability assay.

ATN-1 = assay type: functional, cell-based; conditions: Homo sapiens;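 also: growth inhibition of human ATN-1 cells, read out with a cell viability assay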
Description: SANGER: Inhibition of human ATN-1 cell growth in a cell viability assay.

SF-539 = assay type: functional, cell-based, Homo sapiens; conditions: Homo sapiens, SF-539;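 also: Read-out is a cell viability assay, with IC50 reflecting inhibition of cell growth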
Description: SANGER: Inhibition of human SF539 cell growth in a cell viability assay.

LXF-289 cell line = assay type: functional, cell-based, Homo sapiens; conditions: Homo sapiens, LXF-289
Description: SANGER: Inhibition of human LXF-289 cell growth in a cell viability assay.

SW1088 = assay type: functional, cell-based, Homo sapiens; conditions: Homo sapiens, SW1088;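 also: growth inhibition of human SW1088 cells, read out by a cell viability assay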
Description: SANGER: Inhibition of human SW1088 cell growth in a cell viability assay.

SW 954 = assay type: functional, cell-based, Homo sapiens; conditions: Homo sapiens, SW 954;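 also: growth inhibition of SW954 human cancer cells, read out as cell viability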
Description: SANGER: Inhibition of human SW954 cell growth in a cell viability assay.

SK-MEL-30 = assay type: functional, cell-based; conditions: Homo sapiens;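 also: growth inhibition of SK-MEL-30 cells, determined with a cell viability assay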
Description: SANGER: Inhibition of human SK-MEL-30 cell growth in a cell viability assay.

HT-29 = assay type: functional, cell-based, Homo sapiens; conditions: Homo sapiens, HT-29;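 also: growth inhibition of human HT-29 cells, read out by a cell viability assay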
Description: SANGER: Inhibition of human HT-29 cell growth in a cell viability assay.

KOSC-2 = assay type: functional, cell-based, Homo sapiens; conditions: Homo sapiens, KOSC-2;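 also: growth inhibition of KOSC-2 cells, read out by a cell viability assay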
Description: SANGER: Inhibition of human KOSC-2 cell growth in a cell viability assay.

HT-144 = assay type: functional, cell-based, Homo sapiens; conditions: Homo sapiens, HT-144
Description: SANGER: Inhibition of human HT-144 cell growth in a cell viability assay.

NCI-H1155 = assay type: functional, cell-based; conditions: Homo sapiens;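 also: cell growth inhibition measured by a viability assay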
Description: SANGER: Inhibition of human NCI-H1155 cell growth in a cell viability assay.

T84 = assay type: functional, cell-based, Homo sapiens; conditions: Homo sapiens, T84;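 also: growth inhibition measured with a cell viability readout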
Description: SANGER: Inhibition of human T84 cell growth in a cell viability assay.

MZ7-mel = assay type: functional, cell-based, Homo sapiens; conditions: Homo sapiens, MZ7-mel;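 also: growth inhibition of human MZ7-mel cells, measured by a cell viability assay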
Description: SANGER: Inhibition of human MZ7-mel cell growth in a cell viability assay.

MDA-MB-231 = assay type: functional, cell-based, Homo sapiens; conditions: Homo sapiens, MDA-MB-231
Description: SANGER: Inhibition of human MDA-MB-231 cell growth in a cell viability assay.

DB = assay type: functional, cell-based; conditions: Homo sapiens
Description: SANGER: Inhibition of human DB cell growth in a cell viability assay.

RCM-1 = assay type: functional, cell-based, Homo sapiens; conditions: Homo sapiens, RCM-1;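 also: growth inhibition of the RCM-1 line, determined with a cell viability readout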
Description: SANGER: Inhibition of human RCM-1 cell growth in a cell viability assay.

EOL1 = assay type: functional, cell-based; conditions: Homo sapiens;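 also: growth inhibition of EoL-1 cells, read out by a cell viability assay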
Description: SANGER: Inhibition of human EoL-1-cell cell growth in a cell viability assay.

SW1783 = assay type: functional, cell-based; conditions: Homo sapiens;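 also: cell growth inhibition measured with a viability assay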
Description: SANGER: Inhibition of human SW1783 cell growth in a cell viability assay.

SAS = assay type: functional, cell-based, Homo sapiens; conditions: Homo sapiens, SAS;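 also: growth inhibition of SAS cells, read out with a cell viability assay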
Description: SANGER: Inhibition of human SAS cell growth in a cell viability assay.

NCI-H292 = assay type: functional, cell-based, Homo sapiens; conditions: Homo sapiens, NCI-H292;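 also: growth inhibition of NCI-H292 cells, read out with a cell viability assay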
Description: SANGER: Inhibition of human NCI-H292 cell growth in a cell viability assay.

MZ1-PC = assay type: functional, cell-based, Homo sapiens; conditions: Homo sapiens, MZ1-PC;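 also: cell viability assay measuring growth inhibition of human MZ1-PC cells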
Description: SANGER: Inhibition of human MZ1-PC cell growth in a cell viability assay.

DMS-273 = assay type: functional, cell-based, Homo sapiens; conditions: Homo sapiens, DMS-273
Description: SANGER: Inhibition of human DMS-273 cell growth in a cell viability assay.

Panc1005 = assay type: functional, cell-based, Homo sapiens; conditions: Homo sapiens, Panc1005;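 also: growth inhibition of human PANC-10-05 cells, measured by a cell viability assay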
Description: SANGER: Inhibition of human PANC-10-05 cell growth in a cell viability assay.

RPMI-8226 = assay type: functional, cell-based; conditions: Homo sapiens
Description: SANGER: Inhibition of human RPMI-8226 cell growth in a cell viability assay.

TE-8 = assay type: functional, cell-based, Homo sapiens; conditions: Homo sapiens, TE-8;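 also: growth inhibition of TE-8 cells, measured with a cell viability readout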
Description: SANGER: Inhibition of human TE-8 cell growth in a cell viability assay.

HCC2157 = assay type: functional, cell-based; conditions: Homo sapiens;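 also: growth inhibition of the cancer cell line, read out as cell viability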
Description: SANGER: Inhibition of human HCC2157 cell growth in a cell viability assay.

SK-MEL-1 = assay type: functional, cell-based; conditions: Homo sapiens;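 also: growth inhibition of human SK-MEL-1 cells, read out by a cell viability assay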
Description: SANGER: Inhibition of human SK-MEL-1 cell growth in a cell viability assay.

Cn1cncc1[C@@](N)(c1ccc(Cl)cc1)c1ccc2c(c1)c(-c1cccc(Cl)c1)cc(=O)n2C [TIPIFARNIB]
IC50 (RKO): 1230 nM
IC50 (KINGS-1): > 16000 nM
IC50 (HAL-01): 6740 nM
IC50 (KYSE-510): 977 nM
IC50 (8505C): 431 nM
IC50 (SH-4): 1300 nM
IC50 (BB30-HNC): 585 nM
IC50 (NCI-N87): > 16000 nM
IC50 (NCI-H1395): > 16000 nM
IC50 (IGR-1): 1620 nM
IC50 (ACHN): 1120 nM
IC50 (NCI-H1793): > 16000 nM
IC50 (LB771-HNC): 1130 nM
IC50 (SW780): > 16000 nM
IC50 (FTC-133): > 16000 nM
IC50 (RPMI-7951): 13500 nM
IC50 (U-87 MG): > 16000 nM
IC50 (KMOE-2): 5180 nM
IC50 (TE-1): 2610 nM
IC50 (TK-10): 5680 nM
IC50 (HCC 2998): 384 nM
IC50 (NTERA-2-cl-D1): 237 nM
IC50 (L-363): > 16000 nM
IC50 (CAKI-1): > 16000 nM
IC50 (BB65-RCC): 2640 nM
IC50 (EFM-19): 1750 nM
IC50 (ATN-1): 2540 nM
IC50 (SF-539): > 16000 nM
IC50 (LXF-289 cell line): 4130 nM
IC50 (SW1088): 8570 nM
IC50 (SW 954): 2900 nM
IC50 (SK-MEL-30): 3740 nM
IC50 (HT-29): 547 nM
IC50 (KOSC-2): > 16000 nM
IC50 (HT-144): 1450 nM
IC50 (NCI-H1155): > 16000 nM
IC50 (T84): 546 nM
IC50 (MZ7-mel): 722 nM
IC50 (MDA-MB-231): 5830 nM
IC50 (DB): 10700 nM
IC50 (RCM-1): > 16000 nM
IC50 (EOL1): 6710 nM
IC50 (SW1783): 1260 nM
IC50 (SAS): > 16000 nM
IC50 (NCI-H292): 9280 nM
IC50 (MZ1-PC): 2820 nM
IC50 (DMS-273): 720 nM
IC50 (Panc1005): 5050 nM
IC50 (RPMI-8226): 9030 nM
IC50 (TE-8): 928 nM
IC50 (HCC2157): 323 nM
IC50 (SK-MEL-1): > 16000 nM

CCC1=C[C@@H]2CN(C1)Cc1c([nH]c3ccccc13)[C@@](C(=O)OC)(c1cc3c(cc1OC)N(C)[C@H]1[C@@](O)(C(=O)OC)[C@H](OC(C)=O)[C@]4(CC)C=CCN5CC[C@]31[C@@H]54)C2 [VINORELBINE]
IC50 (RKO): 1.52 nM
IC50 (KINGS-1): > 64 nM
IC50 (HAL-01): > 64 nM
IC50 (KYSE-510): 4.19 nM
IC50 (8505C): 4.42 nM
IC50 (SH-4): 15.5 nM
IC50 (BB30-HNC): 0.399 nM
IC50 (NCI-N87): 44.1 nM
IC50 (NCI-H1395): 53.5 nM
IC50 (IGR-1): 1.9 nM
IC50 (ACHN): 45.8 nM
IC50 (NCI-H1793): 19.2 nM
IC50 (LB771-HNC): 8.59 nM
IC50 (SW780): 14.9 nM
IC50 (FTC-133): > 64 nM
IC50 (RPMI-7951): 8.82 nM
IC50 (U-87 MG): 27.1 nM
IC50 (KMOE-2): > 64 nM
IC50 (TE-1): 13.1 nM
IC50 (TK-10): > 64 nM
IC50 (HCC 2998): 5.05 nM
IC50 (NTERA-2-cl-D1): 0.939 nM
IC50 (L-363): 12.4 nM
IC50 (CAKI-1): > 64 nM
IC50 (BB65-RCC): 61.8 nM
IC50 (EFM-19): 6.04 nM
IC50 (ATN-1): 1.94 nM
IC50 (SF-539): 14.1 nM
IC50 (LXF-289 cell line): 4.68 nM
IC50 (SW1088): > 64 nM
IC50 (SW 954): 5.98 nM
IC50 (SK-MEL-30): 12.4 nM
IC50 (HT-29): 3.24 nM
IC50 (KOSC-2): > 64 nM
IC50 (HT-144): 0.591 nM
IC50 (NCI-H1155): > 64 nM
IC50 (T84): 53.9 nM
IC50 (MZ7-mel): 10.2 nM
IC50 (MDA-MB-231): 37.4 nM
IC50 (DB): 19.4 nM
IC50 (RCM-1): > 64 nM
IC50 (EOL1): 9.09 nM
IC50 (SW1783): > 64 nM
IC50 (SAS): > 64 nM
IC50 (NCI-H292): 5.05 nM
IC50 (MZ1-PC): 17.7 nM
IC50 (DMS-273): 2.71 nM
IC50 (Panc1005): 3.52 nM
IC50 (RPMI-8226): 17 nM
IC50 (TE-8): 46 nM
IC50 (HCC2157): 18.8 nM
IC50 (SK-MEL-1): > 64 nM
